Several values for one entry are separate records, joined by “and”; a condition that tells them apart may be missing. Equal entries are not always repeated.
Test system: old mice
Test: Barnes Maze cognitive function (memory) test
Format: in vivo, mouse
Conditions: for Time searching for the escape hatch in the target zone after CE 18:1 versus before (FIG. 11): old mice (24 months), same mice before and after CE 18:1 enriched diet, 470 mg per kg
Protocol: The cognitive function of the mice was tested using a Barnes Maze. The Barnes maze makes use of a mouse's nature to avoid bright lights and open spaces. The Barnes maze was a white 150 cm disk with 36 evenly spaced holes. The disk is elevated 64 cm above the ground and four visual cues—two 3D cues and two 2D cues—are placed in four quadrants, denoting four possible escape holes. The escape box was placed under the assigned escape hole and fastened by tape. Four portable floodlights were used to evenly illuminate the maze and a light meter was used to ensure consistent brightness of 3400 to 3600 lux. Prior to the beginning of a trial, the maze and the escape box were cleaned with 80% ethanol to remove olfactory cues.
The mouse was placed in the centre of the maze under a cover. The cover was then retracted using a pulley system and the mouse was allowed to explore the maze for four minutes to find and enter the escape hole. If the mouse entered the escape hole in less than four minutes, the time was recorded and the floodlights switched off. If the mouse had not entered the escape hole after four minutes, the mouse was gently guided to the escape hole and lights were switched off. The mouse was allowed to remain in the escape box for one minute before it was returned to its home box outside the experimental room. For the probe trial, the escape box was removed and the trial length was shortened to 3 minutes (180 seconds). The duration required, distance traveled, and latency to the assigned escape hole was recorded using topscan lite 2.0. The time the mouse spent in the “target zone” (the 5 holes consisting of the assigned escape hole and the two holes on either side) searching for the assigned escape hole was also recorded.
Trials were conducted over seven days; day 1 contained a single habituation trial, days 2-6 contained 3 acquisition trials a day and day 7 contained a single probe trial. […]
The CE 18:1 oral administration consisted of 20 mg CE 18:1 suspended in 0.5 g of raspberry flavoured agar jelly. To prepare the CE 18:1 enriched jelly, 4 g of agar powder and 0.1 g NaOH pellets was dissolved in 13 ml raspberry flavoured cordial, with MilliQ water added q.s. to form a total of 200 mL jelly solution. To the jelly solution, 400 mg of cholesteryl oleate was suspended in 40 ml of jelly to form the CE 18:1 oral administration.
Seven old mice (24 months old) were subjected to the Barnes Maze as described above, and the time the mice spent investigating the “target zone” during the probe trial was investigated. The same seven old mice were then fed 0.5 g of the CE 18:1 enriched jelly once a day (20 mg CE 18:1, 4% w/w), which correlated to a CE 18:1 dosage rate of 470 mg per kg of bodyweight. The mice were the subjected to the Barnes Maze as described above, and the time the mice spent investigating the “target zone” during the probe trial was investigated.

[1] = individual old mice (24 months), probe trial of 180 s, after 0.5 g CE 18:1 enriched jelly once a day orally (20 mg CE 18:1, 470 mg per kg bodyweight), one value per mouse

Structure (SMILES): CCCCCCCC/C=C\CCCCCCCC(=O)O[C@H]1CC[C@@]2(C)C(=CC[C@H]3[C@@H]4CC[C@H]([C@H](C)CCCC(C)C)[C@@]4(C)CC[C@@H]32)C1 [CE 18:1, cholesteryl oleate]
- Percentage of time spent at target zone out of 180 sec (%), After CE 18:1, AVERAGE (average of seven old mice (24 months), probe trial, after CE 18:1 jelly orally 470 mg per kg, before CE 18:1: 4.70%): 9.5%
- Duration at target zone (s), After CE 18:1, AVERAGE (average of seven old mice (24 months), probe trial, after CE 18:1 jelly orally 470 mg per kg, before CE 18:1: 8.47 s): 17.10 s
- Duration at target zone (s), After CE 18:1 [1]: 16.00 s and 16.48 s and 28.68 s and 4.84 s and 23.40 s and 21.28 s and 9.04 s
- Percentage of time spent at target zone out of 180 sec (%), After CE 18:1 [1]: 8.89% and 9.16% and 15.93% and 2.69% and 13.00% and 11.82% and 5.02%
- Time searching for the escape hatch in the target zone after CE 18:1 versus before (FIG. 11) (probe trial): statistical increase in time searching for the escape hatch in the target zone
- Time searching for the escape hatch in the target zone after CE 18:1 versus before (FIG. 11) (probe trial, listed as cholesteryl oleate): improved cognitive function in mice
- Time searching for the escape hatch in the target zone after CE 18:1 versus before (FIG. 11) (probe trial, listed as cholesteryl oleate (CE 18:1)): spent more time investigating the target zone

— patent publication US12078642B2, “Methods for evaluating and improving cognitive function” (THE UNIVERSITY OF MELBOURNE, priority 2017, dated 2024)
